This is an account of results in US20140357655A1, “SPIROINDOLINE DERIVATIVES AS GONADOTROPIN- RELEASING HORMONE RECEPTOR ANTAGONISTS” (Bayer Intellectual Property GmbH, priority 2012, published 2014).

Molecules are shown by their SMILES. Like-named read-outs stand apart in the source and are kept apart here. Square brackets hold non-standard residues; d marks the D form. Peptide text beside a SMILES is read from it. dPhe(4-Cl) = N[C@H](Cc1ccc(Cl)cc1)C(=O)O; d2Nal = N[C@H](Cc1ccc2ccccc2c1)C(=O)O; dCit = NC(=O)NCCC[C@@H](N)C(=O)O; d3Pal = N[C@H](Cc1cccnc1)C(=O)O

One data set deals with T1, human GnRHR (Homo sapiens, UniProt P30968).
T1 construct: host or cells: HEK293 (transient transfection), purchased as frozen labelled cells
T1 sequence (P30968 1-328): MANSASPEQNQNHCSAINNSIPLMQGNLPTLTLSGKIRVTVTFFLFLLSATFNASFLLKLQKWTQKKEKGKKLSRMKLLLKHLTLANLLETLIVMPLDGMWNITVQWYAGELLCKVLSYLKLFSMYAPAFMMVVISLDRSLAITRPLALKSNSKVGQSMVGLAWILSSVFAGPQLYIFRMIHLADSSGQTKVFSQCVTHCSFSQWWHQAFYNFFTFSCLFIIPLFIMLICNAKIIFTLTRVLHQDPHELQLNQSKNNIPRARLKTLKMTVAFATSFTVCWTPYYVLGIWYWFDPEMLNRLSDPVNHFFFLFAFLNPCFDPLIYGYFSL
Kind of data set: Tag-Lite receptor binding assay. The settings on record: Hek293 cells transiently transfected with human GnRHR; green-labelled GnRHR binding peptide; read-out: Potency in receptor binding assay using TAG-LITE technology, given as IC50. The source says: This binding assay is based on the fluorescence resonance energy transfer between fluorescence donor labelled human GnRHR and a green-labelled GnRHR binding peptide. Compounds interfering with the ligand binding side of the human GnRHR will replace the labelled peptide resulting in a signal decrease. The assay principle was established by Cisbio Bioassays (Bagnols-sur-Cèze Cedex, France) and further details are available on their homepage.
The assay procedure was further optimized for use in-house with reduced assay volumes. Frozen Hek293 cells, transiently transfected with human GnRHR and Terbium-labelling of the receptor, were supplied by Cisbio Bioassays as well as Tag-Lite buffer and green-labelled GnRHR binding peptide. Cells were thawed and transferred to cold Tag-Lite buffer. A volume of 8 μl of this cell suspension were added to 100 nl of a 160-fold concentrated solution of the test compound in DMSO pre-dispensed in a well of a white low-volume 384-well microtiter plate (Greiner Bio-One, Frickenhausen, Germany). The mixture was incubated for 5 min at room temperature. In the next step either 4 μl Tag-Lite buffer or as control 4 μl of an exceeding amount unlabelled binding peptide in Tag-Lite buffer were transferred to the mixture. The green-labelled GnRHR binding peptide was added in a final step at EC50 in a volume of 4 μl Tag-Lite buffer. After an incubation of 1 h at room temperature plates were measured in a microplate reader, e.g. a PHERAstar (BMG Labtechnologies, Offenburg, Germany) by using a specific optic module.
A ratio from the fluorescence emissions at 520 nm (green fluorescence) and at 490 nm (background signal of Terbium-labelled GnRHR) was calculated and the data were normalized (reaction without test compound=0% inhibition of binding of green-labelled peptide; reaction without test compound with exceeding amount unlabelled binding peptide=100% inhibition of binding of green-labelled peptide). On the same microtiter plate, compounds were tested at 10 different concentrations in the range of 12.5 μM to 0.64 nM (12.5 μM, 4.2 μM, 1.4 μM, 0.46 μM, 0.15 μM, 51 nM, 17 nM, 5.7 nM, 1.9 nM and 0.64 nM; dilution series prepared before the assay at the level of the 160-fold conc. stock solutions by serial 1:3 dilutions in 100% DMSO) in duplicate values for each concentration. By using an in-house software, the IC50 values were calculated by a 4 parameter fit.

The next data set has as its target T2, human GnRH receptor (Homo sapiens, UniProt P30968).
T2 sequence (P30968 1-328): T1 sequence (P30968 1-328)
Kind of data set: IP-One HTRF assay with buserelin (at EC80) stimulation. In kind it is cell-based. The settings on record: CHO cells stably expressing human GnRH receptor, read-out: Potency in IP-One HTRF assay, given as IC50. Put shortly:
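CHO cells stably expressing human GnRH receptor, preincubated 1 h at 37° C with IP1-d2, were exposed to compound and buserelin at EC80 for 1 h at 37° C. After lysis with Tb-anti-IP1 antibody (1 h, 22° C), 665/620 nm HTRF ratio read; 10 concentrations, 20 μM–1 nM, duplicates, 4-parameter IC50.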

Data set [1] is described as follows: Serum compound levels in ovariectomized rats. In kind it is in vivo. The settings on record: female, rat, read-out: serum compound level. The method, then: (§1) Female adult rats were ovariectomized surgically and they were allowed to recover for at least one week. The animals received 1 mg/kg, 10 mg/kg or 30 mg/kg of Example 14.1 by single per oral administration. For comparison reasons a vehicle control and a positive control, 0.1 mg/kg cetrorelix i.p., were given once. At 0 min, 15 min, 30 min, 1 hour, 2 hours, 6 hours and 24 hours after compound administration blood was taken from the retro orbital plexus (n=6 per blood withdrawal) for the measurement of serum LH and serum compound levels.

The next data set concerns serum LH. Kind of data set: LH suppression in the ovariectomized rat. The data set is classed as in vivo. The settings on record: ovariectomized rats; for LH suppression: at 6 hours.
Excerpt: The in vivo potency of GnRH antagonists can be quantified by a LH suppression test in ovariectomized rats. GnRH triggers the LH release from the pituitary mediated by GnRH receptors. Ovarectomy of adult female rats results in elevated levels of circulating LH due to a lack of negative feedback by gonadal steroids. GnRH antagonists suppress the release of LH and accordingly suppression of LH levels can be used to quantify the in vivo potency of GnRH antagonists.
as §1

One may read the IC50 as the concentration that inhibits the measured activity by half. Take `O=C(NCc1ccccc1Cl)c1ccc2c(c1)C1(CC[S+]([O-])CC1)C(C1CC1)N2S(=O)(=O)c1ccc(F)cc1` (single isomer, unassigned) [Example 13.1, N-(2-Chlorobenzyl)-2-cyclopropyl-1-[(4-fluorophenyl)sulfonyl]-1,2,2′,3′,5′,6′-hexahydrospiro[indole-3,4′-thiopyran]-5-carboxamide 1′-oxide]: the IC50 worked out at 8.5 nM at human GnRHR and 12 nM on human GnRH receptor.
`O=C(NCc1ncccc1Cl)c1ccc2c(c1)C1(CCS(=O)(=O)CC1)C(C1CC1)N2S(=O)(=O)c1ccc(F)cc1` (single isomer, unassigned) [Example 14.1, N-[(3-Chloropyridin-2-yl)methyl]-2-cyclopropyl-1-[(4-fluorophenyl)sulfonyl]-1,2,2′,3′,5′,6′-hexahydrospiro[indole-3,4′-thiopyran]-5-carboxamide 1′,1′-dioxide]: the concentration at 6 h in data set [1] (1 mg/kg per oral) worked out at 40 nM; in data set [1] (10 mg/kg per oral) it was 770 ± 200 nM; in data set [1] (30 mg/kg per oral) it was 1840 ± 530 nM. The half-inhibitory concentration (IC50) is 20 nM at human GnRHR and 104 nM at human GnRH receptor. Besides, the LH suppression with serum LH (1 mg/kg single per oral) stood at 11%; in the data set with serum LH (10 mg/kg single per oral) it was 89%; with serum LH (30 mg/kg single per oral), 88%. For the same compound, in the data set with serum LH (per oral), the “in vivo activity (conclusion in words)” value was “orally active GnRH antagonist in vivo”.
For the compound `O=C(NCc1ccccc1Cl)c1ccc2c(c1)C1(CCS(=O)(=O)CC1)C(C1CC1)N2S(=O)(=O)c1ccc(F)cc1` (single isomer, unassigned) [Example 18.1, N-(2-chlorobenzyl)-2-cyclopropyl-1-[(4-fluorophenyl)sulfonyl]-1,2,2′,3′,5′,6′-hexahydrospiro[indole-3,4′-thiopyran]-5-carboxamide 1′,1′-dioxide], the IC50 at human GnRHR stood at 11 nM; on human GnRH receptor, 26 nM.
For `O=C(NCc1ccccc1C(F)F)c1ccc2c(c1)C1(CCS(=O)(=O)CC1)C(C1CC1)N2S(=O)(=O)c1ccc(F)cc1` (single isomer, unassigned) [Example 68.1, 2-cyclopropyl-N-[2-(difluoromethyl)benzyl]-1-[(4-fluorophenyl)sulfonyl]-1,2,2′,3′,5′,6′-hexahydrospiro[indole-3,4′-thiopyran]-5-carboxamide 1′,1′-dioxide] the same measures were 9.5 nM and 4.2 nM.
The like results for `O=C(Nc1cccc(Cl)c1)c1ccc2c(c1)C1(CCS(=O)(=O)CC1)C(C1CC1)N2S(=O)(=O)c1ccc(F)cc1` (stereo not shown) [Example 24, N-(3-chlorophenyl)-2-cyclopropyl-1-[(4-fluorophenyl)sulfonyl]-1,2,2′,3′,5′,6′-hexahydrospiro[indole-3,4′-thiopyran]-5-carboxamide 1′,1′-dioxide] were, in that order, 187 nM and 264 nM.
For `O=C(Nc1ccccc1Cl)c1ccc2c(c1)C1(CCS(=O)(=O)CC1)C(C1CC1)N2S(=O)(=O)c1ccc(F)cc1` (stereo not shown) [Example 67, N-(2-chlorophenyl)-2-cyclopropyl-1-[(4-fluorophenyl)sulfonyl]-1,2,2′,3′,5′,6′-hexahydrospiro[indole-3,4′-thiopyran]-5-carboxamide 1′,1′-dioxide] the same measures were 154 nM and 113 nM.
On to `N#Cc1ccc(S(=O)(=O)N2c3ccc(C(=O)Nc4ccccc4F)cc3C3(CCS(=O)(=O)CC3)C2C2CC2)cc1` (stereo not shown) [Example 75, 1-[(4-cyanophenyl)sulfonyl]-2-cyclopropyl-N-(2-fluorophenyl)-1,2,2′,3′,5′,6′-hexahydrospiro[indole-3,4′-thiopyran]-5-carboxamide 1′,1′-dioxide], for which the IC50 on human GnRHR is 30 nM; at human GnRH receptor, 53 nM.
With `NC(=O)c1ccc(S(=O)(=O)N2c3ccc(C(=O)NCc4ccccc4Cl)cc3C3(CCS(=O)(=O)CC3)C2C2CC2)cc1` (stereo not shown) [Example 94, 1-[(4-carbamoylphenyl)sulfonyl]-N-(2-chlorobenzyl)-2-cyclopropyl-1,2,2′,3′,5′,6′-hexahydrospiro[indole-3,4′-thiopyran]-5-carboxamide 1′,1′-dioxide], the IC50 at human GnRH receptor amounted to 222 nM.
The same measure, in the same setting: the result for `CN1CCCC1=NS(=O)(=O)c1cccc(NC(=O)c2ccc3c(c2)C2(CCS(=O)(=O)CC2)C(C2CC2)N3S(=O)(=O)c2ccc(C(N)=O)cc2)c1` (stereo not shown) [Example 95, 1-[(4-carbamoylphenyl)sulfonyl]-2-cyclopropyl-N-{3-[(1-methylpyrrolidin-2-ylidene)sulfamoyl]phenyl}-1,2,2′,3′,5′,6′-hexahydrospiro[indole-3,4′-thiopyran]-5-carboxamide 1′,1′-dioxide] reads 225 nM.
Still for that read-out and setting: in the case of `NC(=O)c1ccc(S(=O)(=O)N2c3ccc(C(=O)Nc4cccc(S(=O)(=O)Nc5nccs5)c4)cc3C3(CCS(=O)(=O)CC3)C2C2CC2)cc1` (stereo not shown) [Example 96, 1-[(4-carbamoylphenyl)sulfonyl]-2-cyclopropyl-N-[3-(1,3-thiazol-2-ylsulfamoyl)phenyl]-1,2,2′,3′,5′,6′-hexahydrospiro[indole-3,4′-thiopyran]-5-carboxamide 1′,1′-dioxide] it was 484 nM; in that of `O=C(Nc1ccc2c(c1)C1(CCS(=O)(=O)CC1)C(C1CC1)N2S(=O)(=O)c1ccc(F)cc1)C1CC1` (stereo not shown) [Example 97, N-{2-Cyclopropyl-1-[(4-fluorophenyl)sulfonyl]-1′,1′-dioxido-1,2,2′,3′,5′,6′-hexahydrospiro[indole-3,4′-thiopyran]-5-yl}cyclopropanecarboxamide], 2230 nM.
Same read-out and setting: in the case of `O=C(Nc1ccc2c(c1)C1(CCS(=O)(=O)CC1)C(C1CC1)N2S(=O)(=O)c1ccc(F)cc1)C1CCCCC1` (stereo not shown) [Example 98, N-{2-cyclopropyl-1-[(4-fluorophenyl)sulfonyl]-1′,1′-dioxido-1,2,2′,3′,5′,6′-hexahydrospiro[indole-3,4′-thiopyran]-5-yl}cyclohexanecarboxamide] it was 39 nM.
For `O=C(Nc1ccc2c(c1)C1(CCS(=O)(=O)CC1)C(C1CC1)N2S(=O)(=O)c1ccc(F)cc1)C1CCCC1` (stereo not shown) [Example 99, N-{2-cyclopropyl-1-[(4-fluorophenyl)sulfonyl]-1′,1′-dioxido-1,2,2′,3′,5′,6′-hexahydrospiro[indole-3,4′-thiopyran]-5-yl}cyclopentanecarboxamide], on human GnRH receptor, the IC50 was 300 nM.
For `CC(=O)N[C@H](Cc1ccc2ccccc2c1)C(=O)N[C@H](Cc1ccc(Cl)cc1)C(=O)N[C@H](Cc1cccnc1)C(=O)N[C@@H](CO)C(=O)N[C@@H](Cc1ccc(O)cc1)C(=O)N[C@H](CCCNC(N)=O)C(=O)N[C@@H](CC(C)C)C(=O)N[C@@H](CCCNC(=N)N)C(=O)N1CCC[C@H]1C(=O)N[C@H](C)C(N)=O` [cetrorelix, reference compound] (Ac-[d2Nal][dPhe(4-Cl)][d3Pal]SY[dCit]LRP[dA]-NH2), the LH suppression in the data set with serum LH (0.1 mg/kg i.p.) was found to be 91%.
